Activity calls are given as the source filed them. No rule for the calls is given here.
Tested on: CCRIS mutagenicity, Ames/micronucleus/aberration tests
Experiment: CCRIS mutagenicity studies
[1] = Test System: AMES SALMONELLA TYPHIMURIUM, Strain/Indicator: TA98, Metabolic Activation: HAMSTER, LIVER, S-9, AROCLOR 1254 (10%), Method: PREINCUBATION
[2] = Test System: AMES SALMONELLA TYPHIMURIUM, Strain/Indicator: TA98, Metabolic Activation: NONE, Method: PREINCUBATION
[3] = Test System: AMES SALMONELLA TYPHIMURIUM, Strain/Indicator: TA98, Metabolic Activation: RAT, LIVER, S-9, AROCLOR 1254 (10%), Method: PREINCUBATION
[4] = Test System: AMES SALMONELLA TYPHIMURIUM, Strain/Indicator: TA100, Metabolic Activation: HAMSTER, LIVER, S-9, AROCLOR 1254 (10%), Method: PREINCUBATION
[5] = Test System: AMES SALMONELLA TYPHIMURIUM, Strain/Indicator: TA100, Metabolic Activation: NONE, Method: PREINCUBATION
[6] = Test System: AMES SALMONELLA TYPHIMURIUM, Strain/Indicator: TA100, Metabolic Activation: RAT, LIVER, S-9, AROCLOR 1254 (10%), Method: PREINCUBATION
[7] = Test System: AMES SALMONELLA TYPHIMURIUM, Strain/Indicator: TA1535, Metabolic Activation: HAMSTER, LIVER, S-9, AROCLOR 1254 (10%), Method: PREINCUBATION
[8] = Test System: AMES SALMONELLA TYPHIMURIUM, Strain/Indicator: TA1535, Metabolic Activation: NONE, Method: PREINCUBATION
[9] = Test System: AMES SALMONELLA TYPHIMURIUM, Strain/Indicator: TA1535, Metabolic Activation: RAT, LIVER, S-9, AROCLOR 1254 (10%), Method: PREINCUBATION
[10] = Test System: AMES SALMONELLA TYPHIMURIUM, Strain/Indicator: TA1537, Metabolic Activation: HAMSTER, LIVER, S-9, AROCLOR 1254 (10%), Method: PREINCUBATION
[11] = Test System: AMES SALMONELLA TYPHIMURIUM, Strain/Indicator: TA1537, Metabolic Activation: NONE, Method: PREINCUBATION
[12] = Test System: AMES SALMONELLA TYPHIMURIUM, Strain/Indicator: TA1537, Metabolic Activation: RAT, LIVER, S-9, AROCLOR 1254 (10%), Method: PREINCUBATION

## CCCCCCCCOP(=O)(OCCCCCCCC)OCCCCCCCC
[1]
  mutagenic call: inactive; negative
[2]
  mutagenic call: inactive; negative
[3]
  mutagenic call: inactive; negative
[4]
  mutagenic call: inactive; negative
[5]
  mutagenic call: inactive; negative
[6]
  mutagenic call: inactive; negative
[7]
  mutagenic call: inactive; negative
[8]
  mutagenic call: inactive; negative
[9]
  mutagenic call: inactive; negative
[10]
  mutagenic call: inactive; negative
[11]
  mutagenic call: inactive; negative
[12]
  mutagenic call: inactive; negative

## O=S(=O)(Nc1cccc(Cl)c1)c1cccc2cccnc12
Test System: AMES SALMONELLA TYPHIMURIUM, Strain/Indicator: TA98, Metabolic Activation: NONE, Method: STANDARD PLATE
  mutagenic call: inactive; negative
Test System: AMES SALMONELLA TYPHIMURIUM, Strain/Indicator: TA98, Metabolic Activation: RAT, LIVER, S-9, AROCLOR 1254, Method: STANDARD PLATE
  mutagenic call: inactive; negative
Test System: AMES SALMONELLA TYPHIMURIUM, Strain/Indicator: TA100, Metabolic Activation: NONE, Method: STANDARD PLATE
  mutagenic call: inactive; negative
Test System: AMES SALMONELLA TYPHIMURIUM, Strain/Indicator: TA100, Metabolic Activation: RAT, LIVER, S-9, AROCLOR 1254, Method: STANDARD PLATE
  mutagenic call: inactive; negative
Test System: AMES SALMONELLA TYPHIMURIUM, Strain/Indicator: TA1535, Metabolic Activation: NONE, Method: STANDARD PLATE
  mutagenic call: inactive; negative
Test System: AMES SALMONELLA TYPHIMURIUM, Strain/Indicator: TA1535, Metabolic Activation: RAT, LIVER, S-9, AROCLOR 1254, Method: STANDARD PLATE
  mutagenic call: inactive; negative
Test System: AMES SALMONELLA TYPHIMURIUM, Strain/Indicator: TA1537, Metabolic Activation: NONE, Method: STANDARD PLATE
  mutagenic call: inactive; negative
Test System: AMES SALMONELLA TYPHIMURIUM, Strain/Indicator: TA1537, Metabolic Activation: RAT, LIVER, S-9, AROCLOR 1254, Method: STANDARD PLATE
  mutagenic call: inactive; negative

## [Cl][Hg][Cl]
End Point: IN VITRO MICRONUCLEUS, Test System: CHINESE HAMSTER V79 CELLS, Metabolic Activation: NONE
  mutagenic call: active; positive
End Point: IN VITRO MICRONUCLEUS, Test System: CHL/IU CELLS, Metabolic Activation: NONE
  mutagenic call: inactive; negative
End Point: IN VITRO MICRONUCLEUS, Test System: HUMAN PERIPHERAL LYMPHOCYTES, Metabolic Activation: NONE
  mutagenic call: active; positive
End Point: IN VIVO MICRONUCLEUS, Test System: RETICULOCYTES, Species: RAT, Strain/Sex: WISTAR/FEMALE, Route: ORAL (GAVAGE)
  mutagenic call: active; positive
[1]
  mutagenic call: inactive; negative
[2]
  mutagenic call: inactive; negative
[3]
  mutagenic call: inactive; negative
[4]
  mutagenic call: inactive; negative
[5]
  mutagenic call: inactive; negative
[6]
  mutagenic call: inactive; negative
Test System: AMES SALMONELLA TYPHIMURIUM, Strain/Indicator: TA102, Metabolic Activation: NONE, Method: STANDARD PLATE
  mutagenic call: inactive; negative
[7]
  mutagenic call: inactive; negative
[8]
  mutagenic call: inactive; negative
[9]
  mutagenic call: inactive; negative
[10]
  mutagenic call: inactive; negative
[11]
  mutagenic call: inactive; negative
[12]
  mutagenic call: inactive; negative
Test System: E. COLI, Strain/Indicator: WP2 UVRA, Metabolic Activation: NONE, Method: SPOT TEST
  mutagenic call: inactive; negative
Test System: HUMAN BLOOD LYMPHOCYTES, Strain/Indicator: HUMAN BLOOD LYMPHOCYTES (HPRT)/6-THIOGUANINE, Metabolic Activation: NONE, Method: SUSPENSION/PLATE
  mutagenic call: active; positive
Test System: MOUSE LYMPHOMA, Strain/Indicator: L5178Y (TK+/TK-), Metabolic Activation: NONE, Method: SUSPENSION/PLATE
  mutagenic call: active; positive

## O=[N+]([O-])CBr
End Point: In vitro micronucleus, Test System: Human lymphoblastoid TK6 cells, Metabolic Activation: None
  mutagenic call: inactive; negative
End Point: In vitro micronucleus, Test System: Human peripheral blood lymphocytes, Metabolic Activation: None
  mutagenic call: inactive; negative
Test System: Ames Salmonella typhimurium, Strain/Indicator: RSJ100, Metabolic Activation: None, Method: Standard plate
  mutagenic call: inactive; negative
Test System: Ames Salmonella typhimurium, Strain/Indicator: RSJ100, Metabolic Activation: Rat, Liver, S-9, Aroclor, Method: Standard plate
  mutagenic call: inactive; negative
Test System: Ames Salmonella typhimurium, Strain/Indicator: TA98, Metabolic Activation: None, Method: Standard plate
  mutagenic call: inactive; negative
Test System: Ames Salmonella typhimurium, Strain/Indicator: TA98, Metabolic Activation: Rat, Liver, S-9, Aroclor, Method: Standard plate
  mutagenic call: inactive; negative
Test System: Ames Salmonella typhimurium, Strain/Indicator: TA100, Metabolic Activation: None, Method: Standard plate
  mutagenic call: active; positive
Test System: Ames Salmonella typhimurium, Strain/Indicator: TA100, Metabolic Activation: Rat, Liver, S-9, Aroclor, Method: Standard plate
  mutagenic call: active; positive
Test System: Ames Salmonella typhimurium, Strain/Indicator: TA104, Metabolic Activation: None, Method: Standard plate
  mutagenic call: inactive; negative
Test System: Ames Salmonella typhimurium, Strain/Indicator: TPT100, Metabolic Activation: None, Method: Standard plate
  mutagenic call: inactive; negative

## OC(c1ccc(Cl)cc1)(c1ccc(Cl)cc1)C(Cl)(Cl)Cl
End Point: IN VITRO CHROMOSOMAL ABERRATIONS, Test System: CHINESE HAMSTER OVARY CELLS, Metabolic Activation: NONE
  mutagenic call: inactive; negative
End Point: IN VITRO CHROMOSOMAL ABERRATIONS, Test System: CHINESE HAMSTER OVARY CELLS, Metabolic Activation: RAT, LIVER, S-9, AROCLOR 1254
  mutagenic call: inactive; negative
End Point: IN VIVO MICRONUCLEUS, Test System: BONE MARROW POLYCHROMATIC ERYTHROCYTES, Species: MOUSE, Strain/Sex: SWISS/MALE, FEMALE, Route: IP 2X IN AQUEOUS SUSPENSION WITHIN 24 HR
  mutagenic call: inactive; negative
